Laboratory results reported in patent US20240060990A1, “SPATIAL SIGNALING NETWORKS FOR MULTIPLEXED DRUG RESPONSE MEASUREMENT AND MODELING” (Georgia Tech Research Corporation, priority 2022, published 2024).
Entries after “also recorded” stand apart in the source; their conditions may differ.

Assays:
[1] = system: Mcl-1/Bak; conditions: HCC827 cells, 100 nM, 12 h, 5 PPI dataset
Description: (§1) Following that, the cells were then fixed and permeabilized with 1.6% formaldehyde in 1×PBS for 10 minutes at RT and 0.5% Triton X-100 for 10 minutes at RT, respectively. The cells were then blocked using a cell staining medium (CSM) containing 0.5% BSA, and 0.02% Sodium Azide in PBS. […] HCC827 cells were stained with p-ERK overnight followed by 1-hour incubation of secondary antibodies at RT, and 10 mins DAPI staining. The cells were then imaged at 40× magnification, and the intensity levels were analyzed. […] The coverslip was mounted to an acrylic holder for multiple cycles of staining.
(§2) RapMPI on cell cultures: For single color detection, each coverslip prepared with cells was stained with multiple PPIs with one PPI per cycle. The cells were fixed, permeabilized, and then ready for the following staining steps: 1) block the sample with Duolink blocking solution; 2) incubate it with one pair of proteins, conjugated to one PLUS and one MINUS oligonucleotide at 4° C. overnight.
PPI detection: PPI signals were detected using a custom algorithm leveraging a traditional image processing pipeline. More specifically, each PPI image was preprocessed as followed: images were first transformed using a top-hat filter of size 3 pixels to reduce the noise around PPI signals, then Laplacian of Gaussian images was used to detect bright local maxima as PPI signals. […]

[2] = system: PC9 cells; experiment: Cell survival: cell number on coverslip counted in ImageJ; assay type: cell-based, human
Description: The cell survival was measured based on the cell number on the coverslip. […] The cells were stained with p-EGFR, and β-tubulin and three ROIs were imaged for each concentration at 40×. The cell number on each ROI was counted in ImageJ following the steps: import the Channel image, make binary, convert it to masks, analyze particles, and then choose “masks” under the “show” option.

[3] = system: WNT1; experiment: RapMIF multiplexed immunofluorescence in PC9 cells, WNT1; assay type: cell-based, human; conditions: 40 nM, 48 hours vs control
Text: RapMIF: The RapMIF setup consisted of an autosampler that transferred antibodies and performed washes of the sample automatically and controlled by a custom-written python code (FIGS. 10A-10D). The buffers used during the procedure are 1×PBS (D8537, Sigma), CSM, and Fluorophore bleaching solution. PBS 1× was the wash buffer for the stabilization of the cells and the tubes. CSM was the imaging buffer that helped in the annealing of antibodies with the cells. Fluorophore bleaching solution was the strip buffer used to remove staining after each cycle. The walls on the 96-well plate for the antibodies were pre-washed with 1×PBS. The well plate was covered with foil stickers to ensure a dark condition. […] Once the cells were mounted and the antibodies and buffers were ready for transfer, automatic staining was done by running Python code. […]
Cell multiplexing: Each coverslip prepared with cells was stained with 25 markers using a total of 11-12 cycles (FIG. 10C). […] To quantify the frequencies belonging to the signal that disappears after bleaching, a Fourier analysis of before and after bleaching was performed to indicate the difference in frequencies belonging to the signal.
Image intensity: From nuclei and cytosol cell masks, the mean intensity of markers in each cell area was calculated. […]

[4] = system: c-MYC; conditions: EGFRm-sensitive cells; cited from earlier work
[5] = system: NSCLC patients; conditions: phase 3 clinical trial, 80 mg once daily, vs other EGFR-TKI drugs; cited from earlier work
[6] = system: p-ERK/c-Myc; experiment: RapMPI (multiplexed PLA) PPI counts in HCC827 cells; assay type: cell-based, human
Description: as §1, §2
(§3) PPI detection: PPI signals were detected using a custom algorithm leveraging a traditional image processing pipeline. More specifically, each PPI image was preprocessed as followed: images were first transformed using a top-hat filter of size 3 pixels to reduce the noise around PPI signals, then Laplacian of Gaussian images was used to detect bright local maxima as PPI signals. In 3D images, double detection of PPI was filtered out at the same position in consecutive Z stacks. After detecting all the PPI locations in 3D, PPI was observed within a 2.5-pixel radius (0.045 um) by creating a PPI neighborhood graph of radius threshold 2.5 pixels and getting all connected components in the graph. Finally, the mean position of the unique connected components in the graph was extracted as identified unique PPI signals in 3D.

[7] = system: Cyclin E/CDK2; experiment: as above; assay type: cell-based, human; conditions: 100 nM, 12 h, 5 PPI dataset
Description: as §1, §2, §3

[8] = system: p-AKT/mTOR; experiment: as above; assay type: cell-based, human; conditions: 100 nM, 12 h, 5 PPI dataset
Description: as §1, §2, §3

In the case of `C=CC(=O)Nc1cc(Nc2nccc(-c3cn(C)c4ccccc34)n2)c(OC)cc1N(C)CCN(C)C` [Osimertinib], the “Mcl1/Bak interaction (PPI count), cytoplasm or whole cell” value [1] is reported as “did not exhibit an obvious change”, the “cell viability, higher vs lower drug concentrations” value ([2]; 48-hour treatment) is reported as “further decreased the cell viability” and the “number of cells adhering to the coverslips” value ([2]; 48-hour treatment, 0, 20, 40, 60 nM) is reported as “decreased as the drug concentration has increased; also recorded: reduced the number of adherent PC9 cells compared to untreated ones”. The WNT1 signaling [3] was “increased the WNT1 signaling”, the c-MYC degradation [4] was “induce the degradation of c-MYC” and the overall survival [5] was “longer; also recorded: extended”. For the same compound, the progression-free survival [5] was “longer; also recorded: extended”, the “P-ERK/c-Myc interactions (PPI count)” value ([6]; 100 nM, 12 h, 5 PPI dataset) was “significantly increased interactions; also recorded: upregulation” and the “p-ERK/c-Myc PPI” value ([6]; 12 hours, 9 PPI dataset) was “effectively inhibited”. For the same compound, the “interaction between cyclin E and CDK2 (PPI count)” value [7] was “effectively inhibited” and the “p-AKT/mTOR interactions in the cytoplasm” value [8] was “downregulated the p-AKT/mTOR pathway reducing the interactions in the cytoplasm”.
